# Several values for one entry are separate records, joined by “and”; a condition that tells them apart may be missing. Identical values can stand only once. Like-named read-outs stand apart in the source and are kept apart here. Marks after values point to notes of the source that are not given here. Where a SMILES comes first, the peptide text is derived from it. Bridges are numbered along the chain shown (N, C = ends).
# Assays:
# [1] = tested on: S. aureus ATCC43300; assay: Effect of proteinases on activity (MIC); type: cell-based, Staphylococcus aureus; conditions: 1:10 w/w proteinase:peptide, 37 °C for 3 h, then MIC assay
# Experimental: (§1) The peptide solutions were diluted twofold with the range of final concentrations were 0.015–32 µg/ml (0.003–7.273 µM) for purified H1, H2, H3, H6, and H8. The test strains were grown in MHB medium at 37 °C to an OD600 of 0.4 and diluted to 1 × 10^5 CFU/ml. The 10 µl peptide and 90 µl cell suspension were added into each well. All assays were performed in triplicate. The antimicrobial activity of NZ2114 and vancomycin were tested as positive controls. The plates were incubated at 37 °C for 18–24 h. MIC was defined as the lowest peptide concentration of ones at which there was no visible growth (Tian et al. [2009]).
# (§2) The effect of pH, temperature, NaCl concentration and proteinase on the activity of peptides was evaluated. Peptides were diluted twofold, then adjusted to a pH range from 2.0 to 10.0 and incubated at 37 °C for 4 h. The thermal stability of purified peptides was determined after 1-h incubation of peptides at 4, 20, 40, 60, 80 and 100 °C in deionized water, respectively. Aliquots of peptides were incubated in various proteinases solutions [pepsin (pH 2.0), trypsin (pH 8.0), proteinase K (pH 7.0)] at a ratio of 1:10, w/w (proteinase: peptide) at 37 °C for 3 h. For the ion stability, peptides were incubated in 50, 100, 200, 300, 400, 500 mM sodium chloride solutions, respectively. Other methods and conditions were prepared as the MIC assay described above (Li et al. [2015]; Qu et al. [2016]).
# [2] = tested on: S. aureus ATCC43300; assay: Postantibiotic effect (PAE); type: cell-based, Staphylococcus aureus; conditions: 2 h exposure at 37 °C, 1 × 10^8 CFU/ml, drug removed by 1:10^3 dilution, mean ± SD, n = 3
# Experimental: After 2 h, the drug was removed by diluting 1:10^3 into the MHB and incubated at 37 °C, 250 rpm. The sample was taken to plate counting every 1 h until the bacterial cultures become turbid. The PAE was calculated by the following formula: PAE = T − C, where T is the time needed for the count of CFU in the test culture to increase 1 log10 (10-fold) above the 0 h and C is the time needed for the count of CFU in the untreated control culture to increase 1 log10 above the 0 h (Giguère et al. [2012]).
# [3] = tested on: S. aureus ATCC43300; assay: microbe, parasite or virus in culture; type: cell-based, Staphylococcus aureus; conditions: for MICc (MIC of the most effective combination): checkerboard; for FIC: MICc/MICa
# Experimental: The MIC values of four antibiotics (vancomycin, ampicillin, rifampicin and ciprofloxacin) to S. aureus ATCC43300 were tested as the MIC assay described above. The peptide solutions and antibiotics were diluted twofold with the final concentrations ranging from 1/16 to 8× MIC, and added into 96-well plates in a checkerboard fashion (White et al. [1996]). The results of combination were evaluated by calculating the fractional inhibitory concentration index (FICI) of each combination. FIC of H1, H2, H3=MIC of H1, H2, H3, respectively, in combination with antibiotic/MIC of H1, H2, H3 alone; FIC of antibiotics=MIC of antibiotic in combination with peptide/MIC of antibiotic alone; FICI = FIC of H1, H2, H3+ antibiotic, respectively. The result of interaction between two antimicrobial drugs was determined according to: FICI ≤ 0.5 refers to synergy, 0.5 < FICI ≤ 1 refers to additivity, 1 < FICI ≤ 4 refers to indifference, and FICI > 4 is defined as antagonism (Tsuji and Rybak [2006]).
# [4] = tested on: S. aureus ATCC43300 (MRSA); assay: Time-kill curve assay; type: cell-based, Staphylococcus aureus; conditions: 1× MIC
# Experimental: Bacterial culture (S. aureus ATCC43300) was diluted to 1 × 10^5 CFU/ml and H1, H2, and H3 were added. […] The mixture was cultivated at 250 rpm, 37 °C. The 100-µl samples were taken from each flask at 0, 2, 4, 6, 8, 12 and 24 h of incubation, and serial dilutions of samples were plated to count visible colonies. Vancomycin was tested in the same way as a positive control and the culture without antimicrobial agent as a negative control (Xiong et al. [2011]). All experiments were performed in triplicate.
# [5] = tested on: mice red blood cells; assay: Hemolytic assay; type: cell-based; conditions: 0.23 to 7.27 μM (1–32 μg/ml), 37 °C 1 h
# Experimental: The mice blood cells were washed three times in stroke-physiological saline solution (0.9% NaCl) and centrifuged at 4 °C, 2000 rpm for 5 min. A 50-μl cell was diluted to 8% (v/v), added into 96-well plates, and mixed with 50-μl peptide to the final concentrations ranging from […]. The plates were incubated at 37 °C for 1 h, and centrifuged at 4 °C, 5000 rpm for 5 min. The absorbance of supernatants was measured at 540 nm, and 0 and 100% hemolysis was measured by 0.9% NaCl and 0.1% Triton X-100, respectively. The hemolysis percentages were calculated by the following equation: [(Abs540 nm in H1, H2, H3 solution − Abs540 nm in 0.9% NaCl)/(Abs540 nm in 0.1% Triton X-100 − Abs540 nm in 0.9% NaCl)] ×100% (Jiao et al. [2015]).
# [6] = tested on: S. aureus ATCC43300; assay: Effect of temperature on activity (MIC); type: cell-based, Staphylococcus aureus; conditions: then MIC assay
# Experimental: as §1, §2
# [7] = tested on: S. aureus ATCC43300; assay: Effect of pH on activity (MIC); type: cell-based, Staphylococcus aureus; conditions: then MIC assay
# Experimental: as §1, §2
# [8] = tested on: S. aureus ATCC43300; assay: Effect of NaCl concentration on activity (MIC); type: cell-based, Staphylococcus aureus
# Experimental: as §1, §2
# [9] = tested on: S. suis CVCC3928; conditions: data from previous results; ref Jiao et al. [2015]; cited from earlier work
# Description: (§3) Table 2 MIC assays of H1, H2, H3, H6, H8, NZ2114, and vancomycin against G^+ and G^− pathogens | column: MIC (μM) / Van
# [10] = tested on: S. suis CVCC606; conditions: data from previous results; ref Jiao et al. [2015]; cited from earlier work
# Description: as §3
# [11] = tested on: S. suis CVCC3309; conditions: data from previous results; ref Jiao et al. [2015]; cited from earlier work
# Description: as §3
# [12] = tested on: S. aureus ATCC25923; assay: MIC assay; type: cell-based, Staphylococcus aureus; conditions: Staphylococcus aureus, ATCC25923; MHB, 1 × 10^5 CFU/ml, 37 °C, 18–24 h, no visible growth, triplicate
# Experimental: as §1
# [13] = tested on: S. aureus ATCC6538; assay: MIC assay; type: cell-based, Staphylococcus aureus; conditions: Staphylococcus aureus, ATCC6538; MHB, 1 × 10^5 CFU/ml, 37 °C, 18–24 h, no visible growth, triplicate
# Experimental: as §1
# [14] = tested on: S. aureus ATCC43300 (MRSA); assay: MIC assay; type: cell-based; conditions: Staphylococcus aureus; MHB, 1 × 10^5 CFU/ml, 37 °C, 18–24 h, no visible growth, triplicate
# Experimental: as §1
# [15] = tested on: rabbit and human RBCs; conditions: ref Yang et al. [2011], Zhang et al. [2014]; cited from earlier work
# Description: Although the values were higher than NZ2114 due to the high charge and hydrophilicity, they were still very low in the range of MICs. […] Owing to contribution from the three pairs of disulfide bond into th ...
compound,measurement,setting,value
"CC[C@H](C)[C@@H]1NC(=O)[C@H](CO)NC(=O)[C@H](CCCCN)NC(=O)[C@@H]2CSSC[C@@H](C(=O)N[C@@H](Cc3ccc(O)cc3)C(=O)O)NC(=O)[C@H](CCCCN)NC(=O)[C@@H]3CSSC[C@H](NC(=O)[C@H](CCCNC(=N)N)NC(=O)[C@H](CC(C)C)NC(=O)[C@H](CC(=O)O)NC(=O)[C@H](CC(=O)O)NC(=O)[C@H](CCC(=O)O)NC(=O)[C@H](CC(N)=O)NC(=O)[C@H](Cc4c[nH]c5ccccc45)NC(=O)[C@@H]4CCCN4C(=O)CNC(=O)[C@H](CC(N)=O)NC(=O)[C@@H](NC(=O)CNC(=O)[C@H](Cc4ccccc4)NC(=O)CN)CSSC[C@H](NC(=O)[C@H](Cc4ccc(O)cc4)NC(=O)CNC(=O)CNC(=O)[C@H](CCCCN)NC(=O)[C@H](Cc4ccc(O)cc4)NC(=O)CNC(=O)[C@H](CCCCN)NC1=O)C(=O)N[C@@H](C)C(=O)N[C@@H](CCCCN)C(=O)NCC(=O)NCC(=O)N[C@@H](Cc1ccccc1)C(=O)N[C@@H](C(C)C)C(=O)N3)C(=O)N[C@@H](Cc1c[nH]cn1)C(=O)N[C@@H](CC(N)=O)C(=O)N[C@@H](CCCCN)C(=O)N2 [H3] (H-GFGCNGPWNEDDLRCHNKCKSIKGYKGGYCAKGGFVCKCY-OH; disulfide 4-30, 15-37, 19-39 (inferred); N-terminus and C-terminus assumed)",MIC after Pepsin,[1]; pepsin (pH 2.0),0.057 µM
same,MIC after Proteinase K,[1]; proteinase K (pH 7.0),0.114 µM
same,MIC after Trypsin,[1]; trypsin (pH 8.0),0.057 µM
same,PAE,[2]; 1× MIC,0.55 h and 0.55 ± 0.13 h
same,PAE,[2]; 2× MIC,1.55 ± 0.07 h
same,MICc (MIC of the most effective combination),[3]; in combination with ampicillin,0.056 µM
same,MICc (MIC of the most effective combination),[3]; in combination with ciprofloxacin,0.056 µM
same,MICc (MIC of the most effective combination),[3]; in combination with rifampicin,0.056 µM
same,MICc (MIC of the most effective combination),[3]; in combination with vancomycin,0.028 µM
same,MIC,"[3]; drug alone, read-out: MICa (MIC of drug alone)",0.056 µM
same,incubation time after which regrowth occurred,[4],8 h
same,hemolytic activity,[5],little or no hemolytic activity
same,MIC after incubation at 4 °C,[6]; 1 h at 4 °C in deionized water,0.057 µM
same,MIC after incubation at 20 °C,[6]; 1 h at 20 °C in deionized water,0.057 µM
same,MIC after incubation at 40 °C,[6]; 1 h at 40 °C in deionized water,0.057 µM
same,MIC after incubation at 60 °C,[6]; 1 h at 60 °C in deionized water,0.057 µM
same,MIC after incubation at 80 °C,[6]; 1 h at 80 °C in deionized water,0.057 µM
same,MIC after incubation at 100 °C,[6]; 1 h at 100 °C in deionized water,0.114 µM
same,MIC after incubation at pH2,"[7]; pH 2, 37 °C for 4 h",0.057 μM
same,MIC after incubation at pH4,"[7]; pH 4, 37 °C for 4 h",0.057 μM
same,MIC after incubation at pH6,"[7]; pH 6, 37 °C for 4 h",0.114 μM
same,MIC after incubation at pH8,"[7]; pH 8, 37 °C for 4 h",0.057 μM
same,MIC after incubation at pH10,"[7]; pH 10, 37 °C for 4 h",0.057 μM
same,MIC in 50 mM NaCl,[8]; incubated in 50 mM sodium chloride solution,0.057 µM
same,MIC in 100 mM NaCl,[8]; incubated in 100 mM sodium chloride solution,0.057 µM
same,MIC in 200 mM NaCl,[8]; incubated in 200 mM sodium chloride solution,0.057 µM
same,MIC in 300 mM NaCl,[8]; incubated in 300 mM sodium chloride solution,0.057 µM
same,MIC in 400 mM NaCl,[8]; incubated in 400 mM sodium chloride solution,0.114 µM
CN[C@H](CC(C)C)C(=O)N[C@H]1C(=O)N[C@@H](CC(N)=O)C(=O)N[C@H]2C(=O)N[C@H]3C(=O)N[C@H](C(=O)N[C@H](C(=O)O)c4cc(O)cc(O)c4-c4cc3ccc4O)[C@H](O)c3ccc(c(Cl)c3)Oc3cc2cc(c3O[C@@H]2O[C@H](CO)[C@@H](O)[C@H](O)[C@H]2O[C@H]2C[C@](C)(N)[C@H](O)[C@H](C)O2)Oc2ccc(cc2Cl)[C@H]1O [vancomycin],PAE,[2]; 2× MIC,1.72 ± 0.11 h
same,MIC,"[3]; Staphylococcus aureus, ATCC43300, read-out: MICa (MIC of drug alone)",0.714 µM
same,MICc (MIC of the most effective combination),[3]; in combination with H1,0.714 µM
same,MICc (MIC of the most effective combination),[3]; in combination with H2,0.714 µM
same,MICc (MIC of the most effective combination),[3]; in combination with H3,0.714 µM
same,FIC,[3]; in combination with H1,1
same,FIC,[3]; in combination with H2,1
same,FIC,[3]; in combination with H3,1
same,MIC,[9],0.172^b μM
same,MIC,[10],0.172^b μM
same,MIC,[11],0.172^b μM
same,MIC,[12],0.172 µM
same,MIC,[13],1.43 µM
same,MIC,[14],0.714 µM
Plectasin,hemolysis,[15],no hemolysis
